According to paper PMC6009943, “One-pot three-component synthesis of novel spirooxindoles with potential cytotoxic activity against triple-negative breast cancer MDA-MB-231 cells” (Journal of Enzyme Inhibition and Medicinal Chemistry, 2017):

Key:
MDA-MB-231 cells = experiment: In vitro anti-proliferative activity assay (MTT); assay type: cell-based; conditions: Homo sapiens, 48 h incubation
Protocol: Cells lines were maintained as monolayers in Dulbecco’s Modified Eagle’s Medium (DMEM) supplemented with 10% FBS, 2 mM L-glutamine, 100 U/ml penicillin and 100 µg/ml streptomycin sulfate. Cells were sub-cultured with trypsine/EDTA solution, counted with haemocytometer and plated onto 96-well plates (5000 cells/well) and left overnight to form a semi-confluent monolayer. […] DMSO (100 µl/well) was added to dissolve the formazan crystals with shaking for 10 min after which the absorbance was read at 590 nm against no cell blanks on a FLuo Star Optima microplate reader (BMG Technologies, Germany). Cell proliferation was calculated comparing the OD values of the DMSO control wells and those of the samples represented as % proliferation to the control.
The in vitro anti-proliferative activity of the newly synthesized spirooxindoles 6a–p was examined against TNBC MDA-MB-231 cells. This assay was performed utilizing the 3–(4,5-dimethylthiazol-2-yl)-2,5-diphenyltetrazolium bromide (MTT) colorimetric assay as described by Mosmann[18]. Adriamycin was included in this assay as a reference drug.

| SMILES | IC50 (MDA-MB-231 cells) [µM] | melting point [°C] |
| --- | --- | --- |
| COc1cccc2c1C(=O)c1c(O)c3c(c(O)c1C2=O)C[C@@](O)(C(=O)CO)C[C@@H]3O[C@H]1C[C@H](N)[C@H](O)[C@H](C)O1 [Adriamycin, reference compound] | 0.12 |  |
| COc1ccc(C2=C(C#N)C3(C(=O)Nc4ccc(Cl)cc43)c3c(-c4cccs4)nn(-c4ccccc4)c3N2)cc1 (stereo not shown) [Compound 6g, 5-Chloro-6'-(4-methoxyphenyl)-2-oxo-1'-phenyl-3'-(thiophen-2-yl)-1',7'-dihydrospiro[indoline-3,4'-pyrazolo[3,4-b]pyridine]-5'-carbonitrile] | 24.1 | > 300 |
| N#CC1=C(c2ccc(Cl)cc2)Nc2c(c(-c3cccs3)nn2-c2ccccc2)C12C(=O)Nc1ccc(Cl)cc12 (stereo not shown) [Compound 6h, 5-Chloro-6'-(4-chlorophenyl)-2-oxo-1'-phenyl-3'-(thiophen-2-yl)-1',7'-dihydrospiro[indoline-3,4'-pyrazolo[3,4-b]pyridine]-5'-carbonitrile] | 16.6 | 281 to 283 |
| N#CC1=C(c2ccc(Cl)cc2)Nc2c(c(-c3cccs3)nn2-c2ccccc2)C12C(=O)Nc1ccc(Br)cc12 (stereo not shown) [Compound 6l, 5-Bromo-6'-(4-chlorophenyl)-2-oxo-1'-phenyl-3'-(thiophen-2-yl)-1',7'-dihydrospiro[indoline-3,4'-pyrazolo[3,4-b]pyridine]-5'-carbonitrile] | 30.6 | 293 to 294 |
| COc1ccc2c(c1)C1(C(=O)N2)C(C#N)=C(c2ccccc2)Nc2c1c(-c1cccs1)nn2-c1ccccc1 (stereo not shown) [Compound 6m, 5-Methoxy-2-oxo-1',6'-diphenyl-3'-(thiophen-2-yl)-1',7'-dihydrospiro[indoline-3,4'-pyrazolo[3,4-b]pyridine]-5'-carbonitrile] | 17.5 | 276 to 278 |
| COc1ccc(C2=C(C#N)C3(C(=O)Nc4ccc(OC)cc43)c3c(-c4cccs4)nn(-c4ccccc4)c3N2)cc1 (stereo not shown) [Compound 6o, 5-Methoxy-6'-(4-methoxyphenyl)-2-oxo-1'-phenyl-3'-(thiophen-2-yl)-1',7'-dihydrospiro[indoline-3,4'-pyrazolo[3,4-b]pyridine]-5'-carbonitrile] | > 50 | 279 to 281 |

More lines, now with the values ahead:

| IC50 (MDA-MB-231 cells) [µM] | melting point [°C] | SMILES |
| --- | --- | --- |
| 29.7 | 285 to 287 | Cc1ccc(C2=C(C#N)C3(C(=O)Nc4ccccc43)c3c(-c4cccs4)nn(-c4ccccc4)c3N2)cc1 (stereo not shown) [Compound 6b, 2-Oxo-1'-phenyl-3'-(thiophen-2-yl)-6'-(p-tolyl)-1',7'-dihydrospiro[indoline-3,4'-pyrazolo[3,4-b]pyridine]-5'-carbonitrile] |
| 37.8 | 296 to 298 | COc1ccc(C2=C(C#N)C3(C(=O)Nc4ccccc43)c3c(-c4cccs4)nn(-c4ccccc4)c3N2)cc1 (stereo not shown) [Compound 6c, 6'-(4-Methoxyphenyl)-2-oxo-1'-phenyl-3'-(thiophen-2-yl)-1',7'-dihydrospiro[indoline-3,4'-pyrazolo[3,4-b]pyridine]-5'-carbonitrile] |
| 18.2 | 286 to 288 | Cc1ccc(C2=C(C#N)C3(C(=O)Nc4ccc(Cl)cc43)c3c(-c4cccs4)nn(-c4ccccc4)c3N2)cc1 (stereo not shown) [Compound 6f, 5-Chloro-2-oxo-1'-phenyl-3'-(thiophen-2-yl)-6'-(p-tolyl)-1',7'-dihydrospiro[indoline-3,4'-pyrazolo[3,4-b]pyridine]-5'-carbonitrile] |
| > 50 | 268 to 269 | COc1ccc2c(c1)C1(C(=O)N2)C(C#N)=C(c2ccc(C)cc2)Nc2c1c(-c1cccs1)nn2-c1ccccc1 (stereo not shown) [Compound 6n, 5-Methoxy-2-oxo-1'-phenyl-3'-(thiophen-2-yl)-6'-(p-tolyl)-1',7'-dihydrospiro[indoline-3,4'-pyrazolo[3,4-b]pyridine]-5'-carbonitrile] |
